The target of assay [1] is α1S204Cβ2γ2 GABAA receptor. The experiment in a line: Covalent reaction of 3-NCS at the binding level (residual radioligand binding, HEK293 membranes). Further details: key: n.r.: no covalent reaction. As to conditions: 3-NCS 30 min on ice, washed; residual [^3H]Ro15–1788 binding. The method, then: (§1) cDNAs coding for the αx (x = 1, 2, 3, 6), β2, and γ2S subunits DNA (20 µg : 20 µg : 20 µg) per 9 cm diameter dish were transfected in human embryonic kidney (HEK) 293 cells (American Type of Culture Collection, MD, USA, CRL 1573) using the calcium phosphate precipitation technique. For α5 containing receptors β2 was replaced by β1. […] Culturing of cells and membrane preparation were done as described before.
(§2) As detailed in previous work, [30], [33] this procedure included three steps: incubation of membranes expressing recombinant wild type or mutant receptors with the reactive agent followed by extensive washing of the membranes in order to remove non-reacted compound and a radioactive ligand binding assay to determine residual binding. No covalent reaction would result in 100% residual binding, and 100% covalent reaction would result in 0% residual binding.
(§3) Briefly, the membranes were re-suspended in phosphate buffer (100 mM KCl, 10 mM KH2PO4, 0.1 mM EDTA, pH 7.4) using a Glass/Teflon homogenizer. 0.1–1.0 mg/mL of protein were incubated in a total volume of 360 µL with either 10 µM (determination of degree of covalent reaction) or several concentrations of 3-NCS for 30 min on ice. Membranes were collected with rapid filtration on a round 7 mm diameter glass fiber filter (GF/C; Whatman) that was placed on a round 24 mm diameter glass fiber filter (GF/C; Whatman), both pre-washed with phosphate buffer. […] Radioactivity was determined by liquid scintillation counting. Non-specific binding was determined in the presence of 100 µM Ro 15–1788. In control experiments, washing efficiency was estimated by placing radioactivity on the small filter. More than 99.95% of the radioactivity was removed (not shown).
(§4) Concentration response curves for 3-NCS were fitted with the equation C(c) = Cmax/(1+(EC50/c)), where c is the concentration of 3-NCS, EC50 the concentration of 3-NCS where half maximal covalent reaction was observed, Cmax is the maximal extent of the covalent reaction and C the measured extent of the covalent reaction.

Assay [2] addresses α6N204Cβ2γ2 GABAA receptor. The description is as above. Also noted: key: n.r.: no covalent reaction. The following applies: 3-NCS 30 min on ice, washed; [^3H]15–4513 as radioactive ligand. The method, then: as §1, §2, §3, §4
Assay [3] has as its target α6S203Cβ2γ2 GABAA receptor. The description is as above. Also noted: key: n.r.: no covalent reaction. As to conditions: 3-NCS 30 min on ice, washed; [^3H]15–4513 as radioactive ligand. Here is the method:
as §1, §2, §3, §4

Assay [4] relates to wild type GABAA receptors. The assay can be described thus: Covalent reaction at the functional level (two-electrode voltage clamp, Xenopus oocytes). The class given is cell-based. The following applies: all wild type receptors. The method, then: (§5) Capped cRNAs were synthesized (Ambion, Austin, TX, USA) from the linearized plasmids with a cytomegalovirus promotor (pCMVvectors) containing the different subunits, respectively. A poly-A tail of about 400 residues was added to each transcript using yeast poly- A polymerase (United States Biologicals, Cleveland, OH, USA). The concentration of the cRNA was quantified on a formaldehyde gel using Radiant Red stain (Bio-Rad) for visualization of the RNA. Known concentrations of RNA ladder (Invitrogen) were loaded as standard on the same gel. cRNAs were precipitated in ethanol/isoamylalcohol 19∶ 1, the dried pellet dissolved in water and stored at −80°C. cRNA mixtures were prepared from these stock solutions and stored at −80°C. Xenopus laevis oocytes were prepared, injected and defolliculated as described previously, [39]. They were injected with 50 nL of the cRNA solution containing wild type or mutated α1 or α2, α3, α5, α6 and wild type β2 and γ2 subunits at a concentration of 10 nM : 10 nM : 50 nM [40] and then incubated in modified Barth’s solution at +18°C for at least 24 h before the measurements.
(§6) Currents were measured using a modified two-electrode voltage clamp amplifier Oocyte clamp OC-725 (Warner Instruments) in combination with a XY-recorder (90% response time 0.1s) or digitized at 100 Hz using a PowerLab 2/20 (AD Instruments) using the computer programs Chart (ADInstruments GmbH, Spechbach, Germany). Tests with a model oocyte were performed to ensure linearity in the larger current range. The response was linear up to 15 µA.
(§7) Electrophysiological experiments were performed by using the two-electrode voltage clamp method at a holding potential of −80 mV. The perfusion medium contained 90 mM NaCl, 1 mM KCl, 1 mM MgCl2, 1 mM CaCl2, and 5 mM Na-HEPES (pH 7.4) and was applied by gravity flow 6 ml/min. The perfusion medium was applied through a glass capillary with an inner diameter of 1.35 mm, the mouth of which was placed about 0.4 mm from the surface of the oocyte. Allosteric modulation via the benzodiazepine site was measured at a GABA concentration eliciting 2–5% of the maximal GABA current amplitude. GABA was applied for 20 s alone or in combination with allosteric compound. 6 ml of the covalent reacting compound was applied to the oocyte and incubated for 3 min while stopping the flow of the perfusion medium. Modulation of GABA currents was expressed as (I(modulator + GABA)/IGABA –1) * 100%. The perfusion system was cleaned between drug applications by washing with DMSO to avoid contamination.
On the technique in general: Two-electrode voltage clamp holds a large cell at a set potential and records current.

Assay [5] relates to α1S204Cβ2γ2 GABAA receptor. The description is as above. The assay is classed as cell-based. The following applies: after 10 µM 3-NCS and removal of non-covalently reacted 3-NCS. The method, then:
as §5, §6, §7

Assay [6] concerns α3S230Cβ2γ2 GABAA receptor. The assay is described as above. The assay is classed as cell-based. The following applies: after 10 µM 3-NCS and removal of non-covalently reacted 3-NCS. The method, then:
as §5, §6, §7

Assay [7] has as its system α3T231Cβ2γ2 GABAA receptor. The assay is described as above. The class given is cell-based. The following applies: after 10 µM 3-NCS and removal of non-covalently reacted 3-NCS. The method, then:
as §5, §6, §7

The subject of assay [8] is α5S209Cβ2γ2 GABAA receptor. The description is as above. The class given is cell-based. The following applies: after 10 µM 3-NCS and removal of non-covalently reacted 3-NCS. The method, then: as §5, §6, §7
Assay [9] concerns α5T208Cβ2γ2 GABAA receptor. Described as above. The class given is cell-based. The following applies: after 10 µM 3-NCS and removal of non-covalently reacted 3-NCS. The method, then:
as §5, §6, §7

In assay [10] the test system is T1, α5T210Cβ2γ2 GABAA receptor.
T1 construct: expressed in transfected cells; host or cells: Xenopus laevis oocytes (cRNA injection)
The assay is described as above. The class given is cell-based. As to conditions: after 10 µM 3-NCS and removal of non-covalently reacted 3-NCS. Here is the method: as §5, §6, §7

Assay [11] deals with α6N204Cβ2γ2 GABAA receptor. The assay is described as above. The assay is classed as cell-based. As to conditions: after 10 µM 3-NCS and removal of non-covalently reacted 3-NCS. Here is the method:
as §5, §6, §7

In assay [12] the test system is α6S203Cβ2γ2 GABAA receptor. Described as above. The following applies: after 10 µM 3-NCS and removal of non-covalently reacted 3-NCS. The assay is classed as cell-based. Here is the method:
as §5, §6, §7

In assay [13] the target is α5β1γ2 receptors (Rattus norvegicus, UniProt P18508+P19969). The experiment in a line: biochemical.
Chain of α5β1γ2 receptors (P19969 32-464 limits assumed): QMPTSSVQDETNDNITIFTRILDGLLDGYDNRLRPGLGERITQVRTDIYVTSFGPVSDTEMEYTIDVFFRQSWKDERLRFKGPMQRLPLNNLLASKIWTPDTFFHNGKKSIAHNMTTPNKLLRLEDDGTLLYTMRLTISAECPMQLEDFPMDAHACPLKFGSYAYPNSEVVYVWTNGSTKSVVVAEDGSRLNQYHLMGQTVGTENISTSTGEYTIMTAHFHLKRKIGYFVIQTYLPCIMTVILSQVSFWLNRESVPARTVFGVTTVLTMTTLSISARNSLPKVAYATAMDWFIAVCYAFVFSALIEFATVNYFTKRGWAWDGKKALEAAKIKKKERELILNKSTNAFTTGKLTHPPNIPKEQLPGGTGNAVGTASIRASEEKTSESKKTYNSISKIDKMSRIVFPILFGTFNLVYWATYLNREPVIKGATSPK
Chain of α5β1γ2 receptors (P15431 26-474 partner): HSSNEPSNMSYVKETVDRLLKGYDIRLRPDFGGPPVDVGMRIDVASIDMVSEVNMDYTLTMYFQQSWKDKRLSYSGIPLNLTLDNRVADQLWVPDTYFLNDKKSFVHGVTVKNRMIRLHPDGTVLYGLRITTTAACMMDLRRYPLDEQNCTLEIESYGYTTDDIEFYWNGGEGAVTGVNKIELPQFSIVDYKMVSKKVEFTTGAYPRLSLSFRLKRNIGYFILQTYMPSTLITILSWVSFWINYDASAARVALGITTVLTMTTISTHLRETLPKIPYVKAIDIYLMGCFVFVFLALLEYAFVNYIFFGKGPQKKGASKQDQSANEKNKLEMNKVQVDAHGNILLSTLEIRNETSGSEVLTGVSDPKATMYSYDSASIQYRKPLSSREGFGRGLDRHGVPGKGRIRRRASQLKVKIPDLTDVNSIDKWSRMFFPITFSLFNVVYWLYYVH
Chain of α5β1γ2 receptors (P18508 39-466): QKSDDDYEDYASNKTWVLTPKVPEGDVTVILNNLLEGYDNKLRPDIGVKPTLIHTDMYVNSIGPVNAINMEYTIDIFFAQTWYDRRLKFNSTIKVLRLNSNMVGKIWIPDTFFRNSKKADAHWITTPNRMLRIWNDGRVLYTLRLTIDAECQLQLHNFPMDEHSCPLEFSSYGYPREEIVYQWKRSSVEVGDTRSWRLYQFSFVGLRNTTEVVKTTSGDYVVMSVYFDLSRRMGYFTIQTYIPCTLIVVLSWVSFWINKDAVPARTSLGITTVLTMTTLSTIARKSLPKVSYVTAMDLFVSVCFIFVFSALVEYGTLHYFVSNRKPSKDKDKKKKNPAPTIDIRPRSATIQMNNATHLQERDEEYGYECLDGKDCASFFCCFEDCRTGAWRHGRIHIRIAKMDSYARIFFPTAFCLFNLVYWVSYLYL
Description: Culturing of cells and membrane preparation were done as described before [30].
For this affinity estimate, membranes were re-suspended in phosphate buffer using a Teflon homogenizer. […] The final protein concentration was 0.1–1 mg of protein/ml. […] Membranes were collected by rapid vacuum filtration on GF/C filters. After three washing steps (3 sec each) with 5 ml of phosphate buffer, the filter-retained radioactivity was determined by liquid scintillation counting.

Results on one compound are retold here after article PMC3407089, “Influence of GABAA Receptor α Subunit Isoforms on the Benzodiazepine Binding Site” (PLoS ONE, 2012).

The term Ki denotes the equilibrium dissociation constant of an inhibitor or competing ligand from its target.

On to `CN1C(=O)C(N=C=S)N=C(c2ccccc2)c2cc([N+](=O)[O-])ccc21` (stereo not shown) [3-NCS], for which the “EC50 of the covalent reaction” value in [1] is reported as “n.r”; in [2], “n.r. ^a”; in assay [3], “n.r. ^a”. For the same compound, the “Irreversible change of GABA current amplitude after 3-NCS (in words)” value in [4] is “failed to show any changes in the current amplitude”. Further, the “% allosteric modulation, 3-NCS” value was determined as 4±4% in assay [5]; 15±11% in [6]; 28±16% in [7]; 46±17% in [8]; 23±18% in [9]; 10±5% in assay [10]. In addition, the “% allosteric modulation, 3-NCS” value in [11] is given as −4±6%; in [12], 0±2%. In assay [13], this compound had a Ki of 9.84 ± 1.48 µM.
